Results from PubChem BioAssay (NCI).
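Growth conditions: 96-well plates. Treatment: test compound, 48 hours, 5 concentrations. Analysis: linear interpolation between bracketing concentrations; unreached endpoints set to highest concentration. At the GI50, growth is halved. Definition used: TGI = concentration required for complete inhibition of growth.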

What was measured:
Experiment in all cases: NCI-60 cell line screen, 48 h
HCT-116 colon = test system: HCT-116 colon
HL-60(TB) leukemia = test system: HL-60(TB) leukemia
MALME-3M melanoma = test system: MALME-3M melanoma
OVCAR-5 ovarian = test system: OVCAR-5 ovarian
OVCAR-8 ovarian = test system: OVCAR-8 ovarian
PC-3 prostate = test system: PC-3 prostate
SF-539 CNS = test system: SF-539 CNS
SR leukemia = test system: SR leukemia
ACHN renal = test system: ACHN renal
SW-620 colon = test system: SW-620 colon

| SMILES | TGI (HCT-116 colon) [µM] | TGI (HL-60(TB) leukemia) [µM] | TGI (MALME-3M melanoma) [µM] | TGI (OVCAR-5 ovarian) [µM] | TGI (OVCAR-8 ovarian) [µM] | TGI (PC-3 prostate) [µM] | TGI (SF-539 CNS) [µM] | TGI (SR leukemia) [µM] | TGI (ACHN renal) [µM] | TGI (SW-620 colon) [µM] | GI50 (ACHN renal) [µM] | GI50 (HCT-116 colon) [µM] | GI50 (HL-60(TB) leukemia) [µM] | GI50 (OVCAR-5 ovarian) [µM] | GI50 (OVCAR-8 ovarian) [µM] | GI50 (SF-539 CNS) [µM] | GI50 (SR leukemia) [µM] |
| --- | --- | --- | --- | --- | --- | --- | --- | --- | --- | --- | --- | --- | --- | --- | --- | --- | --- |
| CC1(C)Oc2ccc3c(=O)cc(-c4ccccc4)oc3c2C1C(=O)O (centres undefined) | > 100 | > 100 | > 100 | > 100 | > 100 | > 100 | > 100 | > 100 |  |  |  |  |  |  |  |  |  |
| COC(=O)Cn1cnc2c(Cl)nc(Nc3ccccc3)nc21 | > 100 | > 100 | > 100 |  | 66.7 | > 100 | > 100 | > 100 | > 100 | > 100 |  |  |  |  |  |  |  |
| Clc1ccc(C2=CCN3CC=C(c4ccc(Cl)cc4)C23)cc1 | 19.2 | 19.7 | 27.3 | 17 | 29.4 |  | 31.1 | 21.9 | 27 | 26 |  |  |  |  |  |  |  |
| CC(CNC(N)=O)NC(N)=O (centres undefined) | > 100 | > 100 | > 100 | > 100 | > 100 | > 100 | > 100 |  | > 100 | > 100 |  |  |  |  |  |  |  |
| CSc1cnc2ccccc2c1Sc1c[nH]c2ccccc2c1=O | 28.7 | 18 | 37.6 | 59.4 | 34.4 |  | 31.1 | > 52 | 52.5 | > 32.3 |  |  |  |  |  |  |  |
| Oc1ccc(Oc2cc3c(cc2Oc2ccc(O)cc2)-c2nc-3nc3[nH]c(nc4nc(nc5[nH]c(n2)c2cc(Oc6ccc(O)cc6)c(Oc6ccc(O)cc6)cc52)-c2cc(Oc5ccc(O)cc5)c(Oc5ccc(O)cc5)cc2-4)c2cc(Oc4ccc(O)cc4)c(Oc4ccc(O)cc4)cc32)cc1 | > 100 |  | 47 | > 100 | > 100 | > 100 | > 100 | > 100 | > 100 | > 100 |  |  |  |  |  |  |  |
| Cc1c2ccncc2c(C)c2c1[nH]c1ccc(OCCN(C)C)cc12 | 0.256 |  | 2.96 | 1.59 | 0.543 |  | 2.38 |  |  | 0.406 |  |  |  |  |  |  |  |
| NC(=S)NC/C=C/Cl | > 100 | > 100 | > 100 | > 100 | > 100 | > 100 |  | > 100 | > 100 | > 100 |  |  |  |  |  |  |  |
| COC1=CC(=O)N(C)C(O)C1(C#N)OC1OC(CO)C(O)C(O)C1O (centres undefined) | > 100 | > 100 |  | > 100 | > 100 | > 100 | > 100 | > 100 | > 100 | > 100 |  |  |  |  |  |  |  |
| O=C(O)c1ccccc1C1c2ccccc2Oc2ccccc21 | > 100 | > 100 | > 100 | > 100 | > 100 | > 100 |  | > 100 | > 100 | > 100 |  |  |  |  |  |  |  |
| COc1cc(N(CCC#N)CCC#N)ccc1/C=N\NC(=O)c1ccc(C)cc1 | > 100 | > 100 | > 100 | > 100 | > 100 | 31.1 | > 100 |  | > 100 | > 100 |  |  |  |  |  |  |  |
| COc1ccc(C(=O)/C=C/c2cc(-c3cc(OC)c(OC)c(OC)c3)n[nH]2)cc1 | 5.86 | 4.78 |  | 3.78 | 8.26 |  | 3.08 | 23.9 | 3.63 |  | 1.96 | 1.73 | 2.16 | 1.88 | 2.43 | 1.62 | 0.347 |
| S=C1SC(=Nc2ccccc2)C(=Nc2ccccc2)N1c1ccc2ccccc2c1 | > 100 | > 100 | > 100 | > 100 | > 100 | > 100 |  | > 100 |  |  |  |  |  |  |  |  |  |
| O=c1c2ccccc2nc2ccc3c(Cl)[nH][nH]c3c12 | > 100 | > 100 | 77.3 | 98 | > 100 |  |  | > 100 | > 100 | > 100 |  |  |  |  |  |  |  |
| CCC(=O)OC1CCn2c1nc1c2C(=O)C(C)=C(NC(C)=O)C1=N (centres undefined) | 2.39 |  | 2.74 | 3.47 | 2.89 |  | 3.21 | > 100 | 3.95 | 2.44 |  |  |  |  |  |  |  |
| CC1CCC2(OC1)OC1C(O)C3C4CCC5CC(OC6OC(CO)C(OC7OC(CO)C(O)C(OC8OCC(O)C(O)C8O)C7OC7OC(CO)C(O)C(OC8OC(CO)C(O)C(O)C8O)C7O)C(O)C6O)C(O)CC5(C)C4CCC3(C)C1C2C (centres undefined) | 3.36 | 7.21 |  | 4.12 | 4.21 | 10.3 | 10.9 | 18.8 | 3.08 | 98.4 |  |  |  |  |  |  |  |
| CC1=CCC[C@H]2[C@](C)(CC3=CC(=O)C(SCC(C)C)=CC3=O)[C@@H](C)CC[C@]12C | 24.8 |  |  | 40.9 | 26.1 | 30.9 | 33.2 | 59 | 29.7 | 51.7 |  |  |  |  |  |  |  |
| Clc1cc(Cl)ncn1 | > 100 |  | > 100 | > 100 | > 100 | > 100 | > 100 | > 100 | > 100 | > 100 |  |  |  |  |  |  |  |
| O=C1C2C=CC(n3[nH]c(=O)n(Cc4ccccc4)c3=O)CC2C(=O)N1c1ccc(Br)cc1 (centres undefined) | > 100 | > 100 | > 100 | > 100 | > 100 |  | > 100 | > 100 | > 100 | > 100 |  |  |  |  |  |  |  |
| Cc1c([C@H](C)[C@@H]2NC[C@@H](C)C[C@H]2O)ccc2c1C[C@H]1[C@H]2CC=C2C[C@@H](O)CC[C@@]21C | 30.6 |  | 36.5 | 90.8 | > 100 | 32.1 |  |  | 37.6 | > 100 |  |  |  |  |  |  |  |
| Cc1cc(-c2nc3cccc(O)c3s2)ccc1N | > 100 | 47.2 |  |  | 99 | 98.5 | > 100 | > 100 | 49.9 | > 100 |  |  |  |  |  |  |  |
| COc1ccc(C)cc(=O)c1O | > 100 | 61.5 | > 100 | > 100 |  |  | > 100 | 38.6 | > 100 | > 100 |  |  |  |  |  |  |  |
| Cc1ncc(COP(=O)(O)O)c(/C=C2\SC(=S)NC2=O)c1O | > 100 |  | > 100 | > 100 | > 100 | > 100 | > 100 | > 100 | > 100 | > 100 |  |  |  |  |  |  |  |
